The values below come from patent US20020169175A1, “Pharmaceutically acceptable salts of heterocyclic compounds” (DR. REDDY'S LABORATORIES LTD., priority 2001, published 2002).

Series [1] in a line: Single dose oral pharmacokinetic studies in male Wistar rats. Format: in vivo, rat. Conditions: fasted, suspension in 0.25% sodium CMC; for half-life: read-out: t½ (converted). As for the experimental part: Single Dose Oral Pharmacokinetic Studies
Male Wistar rats (220-250 gm) were used in the experiments. The animals were maintained under standard laboratory conditions and had free access to feed and water ad libitum. Before experimentation animals were fasted overnight (˜15 h) during which they had free access to water ad libitum.
An amount equivalent to 30 mg of drug was weighed accurately and transferred into a clean mortar and triturated to obtain a fine powder. To this 0.5 ml of 0.25% sodium carboxy methyl cellulose (sodium CMC) was added to obtain a paste. To the obtained paste remaining 2.5 ml of sodium CMC was added to make up the volume to 3 ml. Based on the animal weight appropriate volume (body weight×3) of the prepared suspension was administered through oral gavage.
After dosing, at designated time points (0.5, 1, 2, 3, 5, 8, 12 and 24 h) 200 μl of blood was collected from retro orbital plexus into 0.5 ml eppendorff tubes containing EDTA (10 μl of 200 mg/ml solution in Milli Q water). Blood was centrifuged at 12,800 rpm for 5 min and obtained plasma and stored at −20° C. till further analysis.
100μl plasma was transferred into a clean and dry centrifuge tube. To this internal standard (10 μl of 100 μg/ml) was added and extracted with 2 ml of extraction recovery solvent. The contents were vortexed for 2 min, followed by centrifugation for 10 min at 2800 rpm. Clear organic layer (2×0.75 ml) was separated and dried under nitrogen gas at 50° C. The residue was reconstituted with 150 μl of mobile phase and vortexed for 20 sec, from this 50 μl was injected onto HPLC column.
Pharmacokinetic parameters were calculated by non-compartmental model analysis. The peak plasma concentration (Cmax) and the corresponding time (Tmax)were directly obtained from the raw data. The area under the plasma concentration versus time curve up to the last quantifiable time point, AUC(0−t) was obtained by the linear and log-linear trapezoidal summation. The AUC(0−t) extrapolated to infinity (i.e., AUC(0−∞)) by adding the quotient of Clast/Kel, where Clast represents the last measurable time concentration and Kel represents the apparent terminal rate constant. Kel was calculated by the linear regression of the log-transformed concentrations of the drug in the terminal phase. The half-life of the terminal elimination phase was obtained using the relationship t½=0.693/Kel.

The mark [2] stands for this setting: male, Wistar, rat, plasma, po, 30 mg/kg.
Where [3] appears, read: male, Wistar, rat, plasma, po, 30 mg/kg, read-out: AUC (0-t).
[4] abbreviates: male, Wistar, rat, plasma, po, 30 mg/kg, read-out: Cmax.
Where [5] appears, read: male, Wistar, rat, plasma, po, 30 mg/kg, read-out: Tmax.

Structures can show the parent of a compound that is named as a salt. Where two headings read alike, the source gives them in different places.

For the molecule `CCO[C@@H](Cc1ccc(OCCn2c(CC)nc3ccccc3c2=O)cc1)C(=O)O` (as salt: salt) [Example 4, (−)-3-[4-[2-(2-Ethyl-4-oxo-3,4-dihydroquinazolin-3-yl)ethoxy]phenyl]-2ethoxypropanoic acid lysine salt], the melting point was in the range of 152 to 155 °C.
`CCO[C@@H](Cc1ccc(OCCn2c(CC)nc3ccccc3c2=O)cc1)C(=O)O` (as salt: salt) [Example 7, (−)-3-[4-[2-(2-Ethyl-4-oxo-3,4-dihydroquinazolin-3-yl)ethoxy]phenyl]-2-ethoxypropanoic acid N-methyl glucamine salt] gave a melting point of 114 to 116 °C.
Consider `CCO[C@@H](Cc1ccc(OCCn2c(CC)nc3ccccc3c2=O)cc1)C(=O)O` (as salt: salt) [Example 10, (−)-3-[4-[2-(2-Ethyl-4-oxo-3,4-dihydroquinazolin-3-yl)ethoxy]phenyl]-2-ethoxypropanoic acid magnesium salt], for which the melting point was > 250 °C.
Same read-out and setting: the result for `CCO[C@@H](Cc1ccc(OCCn2c(CC)nc3ccccc3c2=O)cc1)C(=O)O` (as salt: salt) [Example 11, (−)-3-[4-[2-(2-Ethyl-4-oxo-3,4-dihydroquinazolin-3-yl)ethoxy]phenyl]-2-ethoxypropanoic acid arginine salt] reads 216 to 220 °C; that for `CCCc1nn(C)c2c(=O)n(CCOc3ccc(C[C@H](OCC)C(=O)O)cc3)c(C)nc12` (as salt: salt) [Example 24, 3-[4-[2-(1,5-Dimethyl-7-oxo-3-propyl-6,7-dihydro-1H-pyrazolo[4,3-d]pyrimidin-6-yl)ethoxy]phenyl]-2-ethoxypropionic acid aminoguanidine hydrogen carbonate salt], 110 to 112 °C; that for `CCCc1nn(C)c2c(=O)n(CCOc3ccc(C[C@H](OCC)C(=O)O)cc3)c(CC)nc12` (as salt: salt) [Example 36, (−)-3-[4-[2-(1-Methyl-5-ethyl-7-oxo-3-propyl-6,7-dihydro-1H-pyrazolo[4,3-d]pyrimidin-6-yl)ethoxy]phenyl]-2-ethoxypropionic acid arginine salt], 235 °C.
Molecule `CCCc1nn(C)c2c(=O)n(CCOc3ccc(C[C@H](OCC)C(=O)O)cc3)c(CC)nc12` (as salt: salt) [Example 39, (−)-3-[4-[2-(1-Methyl-5-ethyl-7-oxo-3-propyl-6,7-dihydro-1H-pyrazolo[4,3-d]pyrimidin-6-yl)ethoxy]phenyl]-2-ethoxypropionic acid aminoguanidine hydrogen carbonate salt] registered a melting point of 130 °C.
Molecule `CCCc1nn(C)c2c(=O)n(CCOc3ccc(C[C@H](OCC)C(=O)O)cc3)c(CC)nc12` (as salt: salt) [Example 41, (−)-3-[4-[2-(1-Methyl-5-ethyl-7-oxo-3-propyl-6,7-dihydro-1H-pyrazolo[4,3-d]pyrimidin-6-yl)ethoxy]phenyl]-2-ethoxypropionic acid dicyclohexylamine salt] registered a melting point of 138 to 140 °C.
In turn, `CCCc1nn(C)c2c(=O)n(CCOc3ccc(C[C@H](OCC)C(=O)O)cc3)c(CC)nc12` (as salt: salt) [Example 44, (−)-3-[4-[2-(1-Methyl-5-ethyl-7-oxo-3-propyl-6,7-dihydro-1H-pyrazolo[4,3-d]pyrimidin-6-yl)ethoxy]phenyl]-2-ethoxypropionic acid metformin salt] showed a melting point of 118 °C.
On the same count and under the same terms, the result for `CCCc1nn(C)c2c(=O)n(CCOc3ccc(C[C@H](OCC)C(=O)O)cc3)c(CC)nc12` (as salt: tromethamine) [Example 40, (−)-3-[4-[2-(1-Methyl-5-ethyl-7-oxo-3-propyl-6,7-dihydro-1H-pyrazolo[4,3-d]pyrimidin-6-yl)ethoxy]phenyl]-2-ethoxypropionic acid tromethamine salt] reads 116 to 118 °C.
As to `CCCc1nn(C)c2c(=O)n(CCOc3ccc(C[C@H](OCC)C(=O)[O-])cc3)c(CC)nc12.[K+]` (stereo in doubt), the melting point worked out at 164 °C.
For `CCCc1nn(C)c2c(=O)n(CCOc3ccc(C[C@H](OCC)C(=O)[O-])cc3)c(CC)nc12.[Li+]` (stereo in doubt), the melting point was in the range of 215 to 218 °C.
On to `CCO[C@@H](Cc1ccc(OCCn2c(CC)nc3ccccc3c2=O)cc1)C(=O)[O-].[Li+]` (stereo in doubt), for which the melting point fell in the range of 245 to 247 °C.
`CCO[C@@H](Cc1ccc(OCCn2c(CC)nc3ccccc3c2=O)cc1)C(=O)O` [Example 4, (−)-3-[4-[2-(2-Ethyl-4-oxo-3,4-dihydroquinazolin-3-yl)ethoxy]phenyl]-2ethoxypropanoic acid lysine salt]: the Kel in series [1] is 0.31 h⁻¹. Further, in series [1] (setting [2]), the AUC(0-inf) was found to be 38400 ng·h/mL and the half-life is 1.97 h. Moreover, in series [1] (setting [3]), the area under the curve AUC(0-t) was found to be 40600 ng·h/mL. Further, the maximum concentration (Cmax) in series [1] (setting [4]) turned out to be 38700 ng/mL. For the same molecule, the Tmax in series [1] (setting [5]) came out at 0.5 h.
On to `CCO[C@@H](Cc1ccc(OCCn2c(CC)nc3ccccc3c2=O)cc1)C(=O)O` [Example 7, (−)-3-[4-[2-(2-Ethyl-4-oxo-3,4-dihydroquinazolin-3-yl)ethoxy]phenyl]-2-ethoxypropanoic acid N-methyl glucamine salt], for which, in series [1], the “AUC (0-∞)” value came to 51430 ng·h/mL, the “AUC(0-t)” value was 51650 ng·h/mL, the Cmax turned out to be 40250 ng/mL and the Kel was found to be 0.38 h⁻¹. In addition, in series [1], the time of peak concentration (Tmax) is on record as 0.90 h and the t½ was 1.91 h.
With `CCO[C@@H](Cc1ccc(OCCn2c(CC)nc3ccccc3c2=O)cc1)C(=O)O` [Example 10, (−)-3-[4-[2-(2-Ethyl-4-oxo-3,4-dihydroquinazolin-3-yl)ethoxy]phenyl]-2-ethoxypropanoic acid magnesium salt], in series [1], the “AUC (0-∞)” value came to 74070 ng·h/mL, the “AUC(0-t)” value worked out at 75890 ng·h/mL, the Cmax was 54210 ng/mL and the Kel turned out to be 0.34 h⁻¹. In series [1], the Tmax came out at 0.50 h and the t½ stood at 2.16 h.
Turning to `CCCc1nn(C)c2c(=O)n(CCOc3ccc(C[C@H](OCC)C(=O)O)cc3)c(CC)nc12` [Example 40, (−)-3-[4-[2-(1-Methyl-5-ethyl-7-oxo-3-propyl-6,7-dihydro-1H-pyrazolo[4,3-d]pyrimidin-6-yl)ethoxy]phenyl]-2-ethoxypropionic acid tromethamine salt], in series [1], the Kel came out at 0.60 h⁻¹ and the Tmax is recorded as 0.75 h. For the same molecule, in series [1] (setting [2]), the AUC(0-inf) came to 78600 ng·h/mL and the half-life is 1.2 h. Further, in series [1] (setting [3]), the AUC(0-t) worked out at 77800 ng·h/mL. Further, the Cmax in series [1] (setting [4]) was 34200 ng/mL.
The molecule `CCO[C@@H](Cc1ccc(OCCn2c(CC)nc(-c3ccccc3)cc2=O)cc1)C(=O)[O-].[K+]` [Example 46, (−)2-Ethoxy-3-[4-[2-[2-ethyl-6-oxo-4-phenyl-1,6-dihydropyrimidin-1-yl]ethoxy]phenyl]propanoic acid potassium salt] registered a Kel in series [1] of 0.32 h⁻¹. In series [1] (setting [2]), the AUC(0-inf) turned out to be 62900 ng·h/mL and the half-life is 2.19 h. For the same molecule, the AUC(0-t) in series [1] (setting [3]) is 61200 ng·h/mL. Also, the Cmax in series [1] (setting [4]) is 17700 ng/mL. The Tmax in series [1] (setting [5]) was found to be 1.33 h.
In the case of `CCO[C@@H](Cc1ccc(OCCn2c(CC)nc(-c3ccccc3)cc2=O)cc1)C(=O)[O-].[Na+]` [Example 47, (−)2-Ethoxy-3-[4-[2-[2-ethyl-6-oxo-4-phenyl-1,6-dihydropyrimidin-1-yl]ethoxy]phenyl]propanoic acid sodium salt], the Kel in series [1] was 0.34 h⁻¹. In series [1] (setting [2]), the AUC(0-inf) is 83300 ng·h/mL and the half-life is 2.07 h. In series [1] (setting [3]), the exposure AUC(0-t) was 82200 ng·h/mL. The Cmax in series [1] (setting [4]) worked out at 39500 ng/mL. Moreover, the Tmax in series [1] (setting [5]) turned out to be 0.5 h.
`CCO[C@@H](Cc1ccc(OCCn2c(CC)nc(-c3ccccc3)cc2=O)cc1)C(=O)O` [Example 48, (−)2-Ethoxy-3-[4-[2-[2-ethyl-6-oxo-4-phenyl-1,6-dihydropyrimidin-1-yl]ethoxy]phenyl]propanoic acid L-arginine salt] returned a Kel in series [1] of 0.29 h⁻¹. In series [1] (setting [2]), the AUC(0-inf) came out at 92600 ng·h/mL and the half-life was 2.18 h. Further, in series [1] (setting [3]), the area under the curve AUC(0-t) is 90100 ng·h/mL. The Cmax in series [1] (setting [4]) was 50400 ng/mL. Besides, in series [1] (setting [5]), the Tmax was determined as 0.5 h.

What is called melting point is the temperature of the solid-liquid transition. Usually AUC(0-inf) stands for total exposure, with the tail of the curve extrapolated. The low end stands for low exposure, the high end for high exposure. By AUC(0-t) is commonly meant the area under the concentration-time curve up to a stated or last time point. Broadly, the Cmax is the peak of the concentration-time curve. The term Tmax denotes the time from dosing to the highest level. Broadly, the t½ is the time in which the quantity being followed falls by half. Read a high t½ as slow decline.
